Where two headings read alike, the source gives them in different places.
Tests used:
[1] = target: T1, His-GST-TVMV-hRIPK1(1-324) (Homo sapiens, UniProt Q13546); assay: RIPK1 HTRF Binding Assay
T1 construct: The coding region of human RIPK1(1-324) flanked by NdeI site at 5′ end; made in house; host or cells: Spodoptera frugiperda (Sf9) insect cells, baculovirus
T1 sequence (Q13546 1-324): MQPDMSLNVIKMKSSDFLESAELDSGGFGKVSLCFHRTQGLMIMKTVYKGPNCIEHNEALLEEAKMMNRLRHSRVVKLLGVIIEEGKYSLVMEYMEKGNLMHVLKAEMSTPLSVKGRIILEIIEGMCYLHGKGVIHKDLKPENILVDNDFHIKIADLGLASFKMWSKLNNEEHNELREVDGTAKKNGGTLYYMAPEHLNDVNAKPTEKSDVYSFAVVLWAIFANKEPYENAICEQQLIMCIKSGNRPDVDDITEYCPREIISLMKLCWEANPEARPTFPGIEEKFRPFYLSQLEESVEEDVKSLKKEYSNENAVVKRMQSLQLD
Procedure: The plate was incubated at rt for 1 h.
Cloning and Baculovirus Expression of RIPK1 Construct
Baculovirus was generated for the construct using the Bac-to-Bac baculovirus expression system (Invitrogen) according to the manufacturer's protocol. Briefly, recombinant bacmid was isolated from transformed DH10Bac E. coli competent cells (Invitrogen) and used to transfect Spodoptera frugiperda (Sf9) insect cells (Invitrogen). Baculovirus was harvested 72 hours post transfection and a virus stock was prepared by infecting fresh Sf9 cells at a 1/1000 (v/v) ratio for 66 hours.
The production was carried out either at a 10 L scale in a 22 L cellbag (GE Healthcare Bioscience, Pittsburgh, Pa.) or at a 20 L scale in a 50 L cellbag using WAVE-Bioreactor System 20/50 (GE Healthcare Bioscience). The infected cells were harvested by centrifugation at 2000 rpm for 20 min at 4° C. in a SORVALL® RC12BP centrifuge. The cell pellets was stored at −70° C. before protein was purified.
RIPK1 containing cell paste was resuspended in 50 mM Tris pH 7.5, 150 mM NaCl, 10 mM imidazole, 5% glycerol, 5 mM MgSO4, 1 mM TCEP, 25 U/ml Benzonase, and Complete Protease Inhibitor tablets (1/50 ml, Roche Diagnostics, Indianapolis, Ind.). […] The suspension was clarified by centrifugation at 136,000×g for 40 min, at 4° C. The lysate was decanted from the pellet and passed through a 5 ml NiNTA Superflow cartridge (Qiagen, Valencia, Calif.) using an AKTA Pure (GE Healthcare). Column was eluted with 10 CV linear gradient into 50 mM Tris 7.5, 150 mM NaCl, 500 mM imidazole, 5% glycerol, 1 mM TCEP. Peak fractions were pooled and loaded directly onto 5 ml GSTrap 4B column (GE Healthcare). Column was washed with 50 mM Tris 7.0, 150 mM NaCl, 5% glycerol, 1 mM DTT and eluted in 10 CV linear gradient into 50 mM Tris 8.0, 150 mM NaCl, 20 mM reduced glutathione, 5% glycerol, 1 mM DTT. Fractions identified by SDS-PAGE as containing RIPK1 were pooled and concentrated using 30 kDa MWCO spin concentrators (Amicon Ultra-15, Millipore, Billerica, Mass.) and loaded onto a HiLoad 26/600 Superdex 200 column (GE Healthcare) equilibrated in 25 mM Tris 7.5, 150 mM NaCl, 2 mM TCEP, 5% glycerol.
Protein was aliquoted and stored at −80° C.

[2] = system: MLKL phosphorylation in HT29-L23 human colorectal adenocarcinoma cells; assay: MLKL Phosphorylation High-Content Assay; assay type: cell-based; details: Homo sapiens
Procedure: MLKL Phosphorylation High-Content Assay
Following six hours incubation at 37° C. […] MLKL phosporylation was detected using anti-MLKL (phospho S358) antibody (Abcam #ab187091) (1:1000 dilution in Blocking Buffer [PBS supplemented with 0.1% BSA]) with overnight incubation at 4° C. […] Following another three cycles of washes in PBS, the microplates were sealed, and cellular images were acquired in the Cellomics ArrayScan VTI high-content imager equipped with an X1 camera. […] The image sets were analyzed using the Compartmental Analysis Bioapplication software (Cellomics). The level of MLKL phosphorylation was quantified as MEAN CircRingAvgIntenRatio. […] The data were fitted using the 4-parameter logistic equation to calculate the IC50 and Ymax values.

[3] = x marks IC50 class 20-200 nM, read-out: RIPK1 HTRF binding 20-200 nM
[4] = x marks IC50 class >200 nM, read-out: pMLKL cell activity >200 nM
[5] = x marks IC50 class <20 nM, read-out: RIPK1 HTRF binding <20 nM
[6] = x marks IC50 class 20-200 nM, read-out: pMLKL cell activity 20-200 nM
[7] = x marks IC50 class <20 nM, read-out: pMLKL cell activity <20 nM

| Compound | IC50 [1, 3] [nM] | IC50 [1, 5] [nM] | IC50 [2, 6] [nM] | IC50 [2, 7] [nM] | also measured |
| --- | --- | --- | --- | --- | --- |
| COc1nnc(-c2ccn3nc(N)nc3c2)cc1C(=O)NCc1cc(OC(F)(F)F)ccc1F [Example 386, 6-(2-amino-[1,2,4]triazolo[1,5-a]pyridin-7-yl)-N-(2-fluoro-5-(trifluoromethoxy)benzyl)-3-methoxypyridazine-4-carboxamide] | 20 to 200 |  |  |  | IC50 [2, 4]: > 200 nM |
| [2H]C([2H])(NC(=O)c1cc(-c2ccn3nc(N)nc3c2)c(C)nc1C)c1cc(C(F)(F)F)ccc1F [Example 288, 5-(2-amino-[1,2,4]triazolo[1,5-a]pyridin-7-yl)-N-((2-fluoro-5-(trifluoromethyl)phenyl)methyl-d2)-2,6-dimethylnicotinamide] |  | < 20 | 20 to 200 |  |  |
| Cc1ncc(C(=O)NCc2cccnc2OCC2CCC2)cc1-c1ccn2nc(N)nc2c1 [Example 261, 5-{2-amino-[1,2,4]triazolo[1,5-a]pyridin-7-yl}-N-{[2-(cyclobutylmethoxy)pyridin-3-yl]methyl}-6-methylpyridine-3-carboxamide] | 20 to 200 |  |  |  | IC50 [2, 4]: > 200 nM |
| COc1nc(C)c(-c2ccn3nc(N)nc3c2)cc1C(=O)NCc1c(F)cccc1OCC1CC1 [Example 215, 5-{2-amino-[1,2,4]triazolo[1,5-a]pyridin-7-yl}-N-{[2-(cyclopropylmethoxy)-6-fluorophenyl]methyl}-2-methoxy-6-methylpyridine-3-carboxamide] |  | < 20 |  | < 20 |  |
| Nc1nc2cc(-c3cncc(C(=O)NCc4ccccc4OCC4CC4)c3)ccn2n1 [Example 42, 5-{2-Amino-[1,2,4]triazolo[1,5-a]pyridin-7-yl}-N-{[2-(cyclopropylmethoxy)phenyl]methyl}pyridine-3-carboxamide] |  | < 20 |  | < 20 |  |
| COc1ncc(-c2ccn3nc(N)nc3c2)cc1C(=O)NCc1cccc(OCC2CCC2)c1 [Example 46, 5-{2-Amino-[1,2,4]triazolo[1,5-a]pyridin-7-yl}-N-{[3-(cyclobutylmethoxy)phenyl]methyl}-2-methoxypyridine-3-carboxamide] | 20 to 200 |  |  |  | IC50 [2, 4]: > 200 nM |
| COc1ncc(-c2ccn3nc(N)nc3c2)cc1C(=O)N1CCCC(Cc2cccc(F)c2)C1 (stereo not drawn) [Example 118, 7-(5-{3-[(3-fluorophenyl)methyl]piperidine-1-carbonyl}-6-methoxypyridin-3-yl)-[1,2,4]triazolo[1,5-a]pyridin-2-amine] | 20 to 200 |  | 20 to 200 |  |  |
| COc1nc(C)c(-c2ccn3nc(N)nc3c2)cc1C(=O)NCc1c(F)cccc1OCC(F)(F)F [Example 328, 5-(2-amino-[1,2,4]triazolo[1,5-a]pyridin-7-yl)-N-(2-fluoro-6-(2,2,2-trifluoroethoxy)benzyl)-2-methoxy-6-methylnicotinamide] |  | < 20 |  | < 20 |  |
| COc1nc(C)c(-c2ccn3nc(N)nc3c2)cc1C(=O)NCc1cc(F)cc(F)c1OC1CCOC(C)C1 (stereo not drawn) [Example 352, 5-(2-amino-[1,2,4]triazolo[1,5-a]pyridin-7-yl)-N-(3,5-difluoro-2-((2-methyltetrahydro-2H-pyran-4-yl)oxy)benzyl)-2-methoxy-6-methylnicotinamide] |  | < 20 | 20 to 200 |  |  |
| Cc1ncc(-c2ccn3nc(N)nc3c2)cc1C(=O)NCc1ccccc1OC(C)C [Example 35, 5-{2-Amino-[1,2,4]triazolo[1,5-a]pyridin-7-yl}-2-methyl-N-{[2-(propan-2-yloxy)phenyl]methyl}pyridine-3-carboxamide] | 20 to 200 |  | 20 to 200 |  |  |
| Nc1nc2cc(-c3cncc(C(=O)NCc4cc(F)ccc4OC4CCCC4)c3)ccn2n1 [Example 41, 5-{2-Amino-[1,2,4]triazolo[1,5-a]pyridin-7-yl}-N-{[2-(cyclopentyloxy)-5-fluorophenyl]methyl}pyridine-3-carboxamide] |  | < 20 | 20 to 200 |  |  |
| [2H]C([2H])([2H])Oc1nc(C)c(-c2ccn3nc(N)nc3c2)cc1C(=O)NCc1cc(F)cc(F)c1OC([2H])([2H])C1CC1 [Example 282, 5-(2-Amino-[1,2,4]triazolo[1,5-a]pyridin-7-yl)-N-(2-(cyclopropylmethoxy-d2)-3,5-difluorobenzyl)-2-(methoxy-d3)-6-methylnicotinamide] |  | < 20 |  | < 20 |  |
| Cc1nc(C)c(-c2ccn3nc(N)nc3c2)cc1C(=O)NCc1cc(F)ccc1OCC(F)(F)F [Example 292, 5-(2-amino-[1,2,4]triazolo[1,5-a]pyridin-7-yl)-N-(5-fluoro-2-(2,2,2-trifluoroethoxy)benzyl)-2,6-dimethylnicotinamide] | 20 to 200 |  | 20 to 200 |  |  |
| COc1ncc(-c2ccn3nc(N)nc3c2)cc1C(=O)N[C@H]1CCN(Cc2ccccc2)C1 [Example 159, 5-{2-amino-[1,2,4]triazolo[1,5-a]pyridin-7-yl}-N-[(3S)-1-benzylpyrrolidin-3-yl]-2-methoxypyridine-3-carboxamide] |  |  | 20 to 200 |  | IC50 ([1]; x marks IC50 class >200 nM, read-out: RIPK1 HTRF binding >200 nM): > 200 nM |
| Cc1ncc(C(=O)NCc2cccnc2OCC2CCCC2)cc1-c1ccn2nc(N)nc2c1 [Example 258, 5-{2-amino-[1,2,4]triazolo[1,5-a]pyridin-7-yl}-N-{[2-(cyclopentylmethoxy)pyridin-3-yl]methyl}-6-methylpyridine-3-carboxamide] |  | < 20 |  |  | IC50 [2, 4]: > 200 nM |
| COc1nc(C)c(-c2ccn3nc(N)nc3c2)cc1C(=O)NCc1ncccc1OCC1CCCC1 [Example 203, 5-{2-amino-[1,2,4]triazolo[1,5-a]pyridine-7-yl}-N-{[3-(cyclopentylmethoxy)pyridin-2-yl]methyl}-2-methoxy-6-methylpyridine-3-carboxamide] |  | < 20 | 20 to 200 |  |  |
| Cc1nc(C)c(-c2ccn3nc(N)nc3c2)cc1C(=O)NCc1cc(F)cc(F)c1O[C@H]1CCOC1 [Example 295, (S)-5-(2-amino-[1,2,4]triazolo[1,5-a]pyridin-7-yl)-N-(3,5-difluoro-2-((tetrahydrofuran-3-yl)oxy)benzyl)-2,6-dimethylnicotinamide] |  |  | 20 to 200 |  |  |
| COc1ncc(-c2ccn3nc(N)nc3c2)cc1NC(=O)c1cnn(Cc2ccccc2)c1 [Example 413, N-(5-(2-amino-[1,2,4]triazolo[1,5-a]pyridin-7-yl)-2-methoxypyridin-3-yl)-1-benzyl-1H-pyrazole-4-carboxamide] |  |  |  |  | IC50 [2, 4]: > 200 nM |
| Nc1nc2cc(-c3cnc(Cl)c(C(=O)Nc4cnn(Cc5ccccc5)c4)c3)ccn2n1 [Example 83, 5-{2-Amino-[1,2,4]triazolo[1,5-a]pyridin-7-yl}-N-(1-benzyl-1H-pyrazol-4-yl)-2-chloropyridine-3-carboxamide] |  |  |  | < 20 |  |
| COc1ncc(-c2ccn3nc(N)nc3c2)cc1C(=O)NCCC(C)c1ccccc1 (stereo not drawn) [Example 85, 5-{2-Amino-[1,2,4]triazolo[1,5-a]pyridin-7-yl}-2-methoxy-N-(3-phenylbutyl)pyridine-3-carboxamide] |  |  |  | < 20 |  |
